According to patent US20240257668A1, “3D ARTIFICIAL SKIN MODEL AND METHOD FOR PRODUCING THE SAME” (Korea Advanced Institute of Science and Technology, priority 2023, published 2024):

B1: transforming growth factor-beta 2 (protein, UniProt P61812 303-414, looked up)
Transforming growth factor …: ALDAAYCFRNVQDNCCLRPLYIDFKRDLGWKWIHEPKGYNANFCAGACPYLWSSDTQHSRVLSLYNTINPEASASPCCVSQDLEPLTILYYIGKTPKIEQLSNMIVKSCKCS

Legend:
[1] = test system: stromal layer of the basement membrane+stromal layer artificial skin model; experiment: Inhibition of tissue contraction of basement membrane+stromal layer artificial skin model by blebbistatin; type: cell-based
Method: Additionally, the basement membrane+stromal layer model without epithelial cells (Example 1-4) was produced and incubated for 24 hours under conditions of 37° C. and 5% CO2.
After incubation, each sample was imaged with a confocal fluorescence microscope at a wavelength of 488 nm, and the images were synthesized into two-dimensional images by max intensity projection using the ImageJ imaging program. […] However, it could be seen that, in the sample in which tissue contraction had already occurred, tissue contraction was maintained even after subsequent treatment with blebbistatin.

[2] = test system: stromal cells (fibroblasts) in the stromal layer; experiment: Tissue contraction of basement membrane+stromal layer artificial skin model incubated with TGF-β2; type: cell-based; conditions: 10 ng/ml TGF-β2 added to DMEM + 10% FBS + 1% P/S; 96 hours, 37° C., 5% CO2; model without epithelial cells (FIGS. 5 and 6)
Method: In order to form wavy ridges in the stromal layer corresponding to the dermal layer of normal skin tissue, tissue contraction is required at the stromal layer boundary that is in contact with the basement membrane. In order to confirm whether the artificial skin model of the present disclosure can mimic this function, a basement membrane+stromal layer model without epithelial cells (Example 1-4) was produced, incubated under conditions of 37° C. and 5% CO2 for 96 hours. Incubation was performed using DMEM containing 10% FBS (fetal bovine serum) and 1% P/S (penicillin/streptomycin), and 10 ng/ml of TGF-β2 (transforming growth factor-beta 2) was additionally added to the test group. FIGS. 5 and 6, respectively, show the results of imaging the incubated model and the results of quantifying the image size relative to the control strain (0) based on 6 mm. The physical property was measured with Anton Paar MCR 92. […] This is believed to be because TGF-β2 increased contraction by activating stromal cells (fibroblasts) in the stromal layer. Therefore, in the following study, a medium supplemented with 10 ng/ml of TGF-β2 was used.

Molecule	tissue contraction at the stromal layer boundary ([1]; 10 μM blebbistatin in control medium (with 10 ng/ml TGF-β2) from the beginning, 24 hours (group Bleb; FIG. 7))	tissue contraction at the stromal layer boundary ([1]; 12 hours control medium, then 12 hours with 10 μM blebbistatin, tissue contraction already occurred (group Bleb after 12 hours; FIG. 7))	tissue contraction at the boundary of the stromal layer [2]
Cc1ccc2c(c1)C(=O)C1(O)CCN(c3ccccc3)C1=N2 (stereo not drawn) [blebbistatin]	inhibited	maintained	
B1			well induced
